Read-outs that look alike come from different tables or passages of the source.
Assays:
[1] = target: T1, Cyclin Dependent Kinase 2/Cyclin E1 (CDK2-cycE1) (Homo sapiens, UniProt P24941); test: CDK2-cycE1 TR-FRET (LANCE) enzyme assay; type: biochemical; details: for FS CDK1/CDK2 / FS CDK4/CDK2: fold selectivity; for FS CDK1/CDK2: enzymatic CDK1 Ki over CDK2 Ki; for FS CDK4/CDK2: enzymatic CDK4 Ki over CDK2 Ki
T1 construct: purchased ProQinase 0050-0055-1
Summary of the method: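 Kinase reaction buffer: 50 mM HEPES pH 7.5, 10 mM MgCl2, 2 mM TCEP, 0.05% BGG, 0.01% Brij 35, with 30 min compound–enzyme pre-incubation.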

SKOV-3 (ATCC HTB-77) = test: SKOV-3 EdU incorporation cell proliferation assay (CDK4/6-dependent); type: cell-based; details: Homo sapiens, SK-OV-3, Table O, cellular assay; read-out: CDK4/6 SKOV-3 IC50
Summary of the method: (§1)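 EdU incorporation (0.5 μM final, last 8 h) follows a 16 h compound exposure at 37 °C, 5% CO2 in RPMI plus 10% FBS, 0.5% DMSO. After fixation, imaging scores EdU-positive cells; a 4-parameter logistic fit of that fraction gives IC50.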

[2] = tested on: OVISE (JCRB1043, CCNE1-amplified); test: OVISE EdU incorporation cell proliferation assay (CDK2-dependent); type: cell-based; details: Table O; for IC50: cellular assay, read-out: CDK2 OVISE IC50; for FS SKOV-3/OVISE / FS p-H3/OVISE: fold selectivity; for FS SKOV-3/OVISE: cellular SKOV-3 IC50 over OVISE IC50; for FS p-H3/OVISE: cellular p-H3 IC50 over OVISE IC50
Summary of the method: as §1

[3] = target: T2, Cyclin Dependent Kinase 4/Cyclin D3 (CDK4-cycD3) (Homo sapiens, UniProt P11802); test: CDK4-cycD3 TR-FRET (LANCE) enzyme assay; type: biochemical; details: Table O, enzymatic assay
T2 construct: purchased Carna Biosciences 04-105
Summary of the method: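 Compound dose responses pre-incubated 30 min with enzyme mix in 50 mM HEPES pH 7.5, 10 mM MgCl2, 2 mM TCEP, 0.05% BGG, 0.01% Brij 35. Reaction quenched with EDTA (15 mM final); Eu-anti-phospho-4E-BP1 TR-FRET detection, acceptor/donor ratio. Ki derived by Morrison equation.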

HCT116 cells = test: p-H3 HCT-116 mitotic release cell proliferation assay (cellular CDK1); type: cell-based; details: Homo sapiens, HCT-116; Table O, cellular assay; read-out: CDK1 p-H3 IC50
Summary of the method: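 Phospho-Histone H3 (Ser10) in lysates was quantified by a two-antibody HTRF FRET read (≥2 h, room temperature). Before this, HCT116 cells held in mitosis by 16 h of 500 nM nocodazole were treated with compound for 4 h at 37 °C, 0.1% DMSO.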

[4] = target: T3, Cyclin Dependent Kinase 1/Cyclin A2 (CDK1-cycA2) (Homo sapiens, UniProt P06493); test: CDK1-cycA2 TR-FRET (Lance) enzyme assay; type: biochemical; details: Table O, enzymatic assay
T3 construct: purchased ProQinase 0134-0054-1
Summary of the method: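 TR-FRET (Lance) detection of phospho-4E-BP1 with a europium-labelled antibody after EDTA quench (15 mM final); signal taken as acceptor/donor ratio. Enzyme and compound were pre-incubated 30 min in HEPES pH 7.5 buffer with MgCl2, TCEP, BGG and Brij 35. Ki derived by Morrison fit.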

[5] = Table O, enzymatic assay, read-out: CDK2 Ki

T2 sequence (P11802 whole entry): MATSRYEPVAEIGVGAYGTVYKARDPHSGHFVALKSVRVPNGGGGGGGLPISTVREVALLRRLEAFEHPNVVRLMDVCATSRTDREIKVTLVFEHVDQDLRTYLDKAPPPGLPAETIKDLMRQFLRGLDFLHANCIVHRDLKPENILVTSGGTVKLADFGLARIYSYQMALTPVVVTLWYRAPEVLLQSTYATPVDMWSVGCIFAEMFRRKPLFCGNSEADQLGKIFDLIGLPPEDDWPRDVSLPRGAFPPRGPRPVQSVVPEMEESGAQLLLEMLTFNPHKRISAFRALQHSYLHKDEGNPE
T2 sequence (P30281 whole entry partner): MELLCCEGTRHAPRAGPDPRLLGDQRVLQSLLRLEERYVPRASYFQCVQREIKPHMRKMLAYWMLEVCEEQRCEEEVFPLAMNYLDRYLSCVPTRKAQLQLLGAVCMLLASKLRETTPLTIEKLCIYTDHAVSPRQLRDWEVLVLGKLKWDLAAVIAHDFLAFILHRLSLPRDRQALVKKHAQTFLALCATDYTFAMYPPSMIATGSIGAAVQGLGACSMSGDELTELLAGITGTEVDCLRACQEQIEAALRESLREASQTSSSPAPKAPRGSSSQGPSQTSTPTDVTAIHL
T3 sequence (P06493 whole entry): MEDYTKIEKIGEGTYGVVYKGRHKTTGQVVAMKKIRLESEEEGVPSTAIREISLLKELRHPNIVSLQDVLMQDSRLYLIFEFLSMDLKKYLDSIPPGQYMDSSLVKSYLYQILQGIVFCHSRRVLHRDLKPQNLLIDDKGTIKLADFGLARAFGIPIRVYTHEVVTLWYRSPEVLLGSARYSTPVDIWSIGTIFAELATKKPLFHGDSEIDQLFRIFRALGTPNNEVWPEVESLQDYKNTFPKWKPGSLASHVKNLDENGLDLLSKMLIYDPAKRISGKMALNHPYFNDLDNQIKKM
T3 sequence (P20248 whole entry partner): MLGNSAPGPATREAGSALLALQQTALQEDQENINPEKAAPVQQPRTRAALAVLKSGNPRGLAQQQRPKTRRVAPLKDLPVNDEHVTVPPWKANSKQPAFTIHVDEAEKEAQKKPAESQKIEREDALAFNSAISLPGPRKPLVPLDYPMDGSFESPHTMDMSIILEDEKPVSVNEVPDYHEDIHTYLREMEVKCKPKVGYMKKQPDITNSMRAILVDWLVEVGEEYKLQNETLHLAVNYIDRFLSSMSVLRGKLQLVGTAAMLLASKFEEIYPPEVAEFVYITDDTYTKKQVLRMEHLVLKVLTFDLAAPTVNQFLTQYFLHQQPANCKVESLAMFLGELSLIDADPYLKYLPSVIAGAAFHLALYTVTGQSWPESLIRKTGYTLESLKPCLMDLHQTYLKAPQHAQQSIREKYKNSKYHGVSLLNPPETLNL

| Compound | Ki [1, 5] [nM] | FS CDK1/CDK2 ([1]; Table O) | FS CDK4/CDK2 ([1]; Table O) | IC50 (SKOV-3 (ATCC HTB-77)) [nM] | IC50 [2] [nM] | FS SKOV-3/OVISE [2] | FS p-H3/OVISE [2] | Ki [3] [nM] | IC50 (HCT116 cells) [nM] | Ki [4] [nM] | Ki ([1]; read-out: CDK2 activity / potency (enzymatic assay)) [nM] |
| --- | --- | --- | --- | --- | --- | --- | --- | --- | --- | --- | --- |
| CC(CC(F)(F)F)NC(=O)O[C@@H]1CC[C@H](c2cc(Nc3ccc(=O)n(C)n3)n[nH]2)C1 (stereo partly drawn) [Example 6D, (1R,3S)-3-(3-((1-methyl-6-oxo-1,6-dihydropyridazin-3-yl)amino)-1H-pyrazol-5-yl)cyclopentyl (4,4,4-trifluorobutan-2-yl)carbamate] | 0.21 | 17 | 290 | 4300 | 77 | 56 | 0.94 | 61 | 72 | 3.6 |  |
| C[C@H](NC(=O)O[C@@H]1CC[C@H](c2cc(Nc3ccc(=O)n(C)n3)n[nH]2)C1)c1ccccc1 [Example 6E, (1R,3S)-3-(3-((1-methyl-6-oxo-1,6-dihydropyridazin-3-yl)amino)-1H-pyrazol-5-yl)cyclopentyl ((S)-1-phenylethyl)carbamate] | 2.9 | 17 | 6.2 | 15000 | 320 | 47 | 0.91 | 18 | 290 | 48 |  |
| Cc1nc(C(=O)N(C)C)ccc1Nc1cc([C@H]2CC[C@@H](OC(=O)NC3(C)CC3)C2)[nH]n1 [Example 7, (1R,3S)-3-(3-((6-(dimethylcarbamoyl)-2-methylpyridin-3-yl)amino)-1H-pyrazol-5-yl)cyclopentyl (1-methylcyclopropyl)carbamate] | 0.36 | 64 | 110 | 3800 | 58 | 66 | 0.86 | 38 | 50 | 23 | ≤ 1 |
| Cc1nccnc1Nc1cc([C@H]2CC[C@@H](OC(=O)NC3(C)COC3)C2)[nH]n1 [Example 8B, (1R,3S)-3-(3-((3-methylpyrazin-2-yl)amino)-1H-pyrazol-5-yl)cyclopentyl (3-methyloxetan-3-yl)carbamate] | 0.66 | 79 | 212 | 3000 | 87 | 34 | 1.6 | 140 | 140 | 52 |  |
| Cc1ncccc1Nc1cc([C@H]2CC[C@@H](OC(=O)NC3(C)COC3)C2)[nH]n1 [Example 8] | 3.1 | 52 | 213 | 15000 | 320 | 47 | 1.8 | 660 | 560 | 160 |  |
| Cc1cc(Nc2cc([C@H]3CC[C@@H](OC(=O)NC45CC(C4)C5)C3)[nH]n2)ccn1 [Example 9, (1R,3S)-3-(3-((2-methylpyridin-4-yl)amino)-1H-pyrazol-5-yl)cyclopentyl bicyclo[1.1.1]pentan-1-ylcarbamate] | 1.9 | 32 | 79 | 3300 | 170 | 19 | 1.2 | 150 | 210 | 61 |  |
| Cn1cnc(Nc2cc([C@H]3CC[C@@H](OC(=O)NC45CC(C4)C5)C3)[nH]n2)cc1=O [Example 9B, (1R,3S)-3-(3-((1-methyl-6-oxo-1,6-dihydropyrimidin-4-yl)amino)-1H-pyrazol-5-yl)cyclopentyl bicyclo[1.1.1]pentan-1-ylcarbamate] | 0.35 | 34 | 60 | 470 | 33 | 14 | 1.4 | 21 | 46 | 12 |  |
| CNC(=O)c1cc(C)c(Nc2cc([C@H]3CC[C@@H](OC(=O)NC45CC(C4)C5)C3)[nH]n2)cn1 [Example 9C, (1R,3S)-3-(3-((4-methyl-6-(methylcarbamoyl)pyridin-3-yl)amino)-1H-pyrazol-5-yl)cyclopentyl bicyclo[1.1.1]pentan-1-ylcarbamate] | 2 | 95 | 200 | 9100 | 180 | 51 | 1.0 | 400 | 180 | 190 |  |
| CNC(=O)c1cnc(Nc2cc([C@H]3CC[C@@H](OC(=O)NC45CC(C4)C5)C3)[nH]n2)c(C)n1 [Example 9E, (1R,3S)-3-(3-((3-methyl-5-(methylcarbamoyl)pyrazin-2-yl)amino)-1H-pyrazol-5-yl)cyclopentyl bicyclo[1.1.1]pentan-1-ylcarbamate] | 2.1 | 33 | 90 | 1000 | 200 | 5 | 1.0 | 190 | 220 | 69 |  |
| CN1CCN(c2ccc(Nc3cc([C@H]4CC[C@@H](OC(=O)NC56CC(C5)C6)C4)[nH]n3)cn2)CC1 [Example 9H, (1R,3S)-3-(3-((6-(4-methylpiperazin-1-yl)pyridin-3-yl)amino)-1H-pyrazol-5-yl)cyclopentyl bicyclo[1.1.1]pentan-1-ylcarbamate] | 4.7 | 6.4 | 2 | 150 | 150 | 1 | 0.26 | 9.5 | 39 | 30 |  |
| O=C(NC12CC(C1)C2)O[C@@H]1CC[C@H](c2cc(Nc3ccc(CO)nc3)n[nH]2)C1 [Example 9I, (1R,3S)-3-(3-((6-(hydroxymethyl)pyridin-3-yl)amino)-1H-pyrazol-5-yl)cyclopentyl bicyclo[1.1.1]pentan-1-ylcarbamate] | 0.38 | 23 | 97 | 360 | 30 | 12 | 0.23 | 37 | 6.9 | 8.9 |  |
